Results from patent publication US20030162818A1, “Acylsulfonamide derivative” (AJINOMOTO CO. INC., priority 1997, published 2003).

What was measured:
HepG2 cells = test: Measurement of intracellular fatty acid synthesis inhibition activity (FA biosynthesis from [14C]-glucose); type: cell-based; settings: Homo sapiens, 3.0 × 10^−5 M compound, 3 hours culture with [14C]-glucose
Method: Measurement of Intracellular Fatty Acid Synthesis Inhibition Activity (FA Biosynthesis Inhibition Activity)
Each of the compounds produced in the Examples was dissolved in DMSO and added to an experimental culture medium (DMEM; 0.05 μg/ml insulin, 0.1 mg/ml glucose and 18.5 kBq/ml [^14C]-glucose). The HepG2 cells were adjusted to a density of 0.75×10^6 cells/ml, inoculated into a 12 well plate in an amount of 1 ml/well and cultured overnight at 37° C. in an atmosphere of 5% CO2 (culture medium: DMEM, […] and 10% FBS), and the resulting cells were washed twice with PBS(−) buffer, mixed with the experimental culture medium in an amount of 0.5 ml/well and then cultured at 37° C. for 3 hours in an atmosphere of 5% CO2. After the culturing, the cells were washed twice with ice-cooled PBS(−) buffer and peeled off, and lipids were extracted from the resulting cells with a lipid extraction solution (chloroform:methanol=2:1). The extract was mixed with 2.5 ml of ethanol and 0.1 ml of 33% potassium hydroxide and incubated at 70° C. for 1 hour. Lipids were again extracted from the reaction mixture, and the extract was applied to a silica gel thin layer plate. This was developed with a developing solution (hexane:diethyl ether:acetic acid=80:20:1) and then the fatty acid iodine-coloring part was collected to measure its radioactivity using a liquid scintillation counter. The inhibition activity % (3.0×10^−5 M) of each compound was calculated.

[1] = target: T1, acetyl-CoA carboxylase (ACC) (Rattus norvegicus, UniProt P11497); test: Measurement of ACC inhibition activity (14C-bicarbonate incorporation, ACC purified from rat liver); type: biochemical; settings: 5.6 × 10^−6 M compound; ACC purified from SD rat liver
T1 construct: subjected to decapitation and bloodletting under ether anesthesia to quickly take out the liver; from tissue; host or cells: rat liver (male SD rat, fasted then fed a high-sucrose feed)
Method: After 2 days of fasting, a male SD rat of 12 weeks of age was allowed to feed on a high sucrose feed (67% sucrose, 17.1% casein, 9.8% cellulose, 5% sodium chloride, 0.1% choline chloride and 1% vitamins) for 2 days and then subjected to decapitation and bloodletting under ether anesthesia to quickly take out the liver. The thus obtained liver was sliced in an ice-cooled buffer A (225 mM mannitol, 75 mM sucrose, 10 mM Tris/HCl (pH 7.5), 0.05 mM EDTA-2Na, 5 mM potassium citrate, 2.5 mM MnCl2, 10 mg/l aprotinin, 10 mg/l leupeptin and 10 mg/l antitrypsin) and then, after removal of moisture, adjusted to 5 ml/g by adding the buffer A and homogenized for 4 minutes using Polytron homogenizer. This was centrifuged for 10 minutes at 1,000 g and then the resulting supernatant was subjected to 10 minutes of high speed centrifugation at 17,000 g.
Ammonium sulfate was added to the thus obtained supernatant to a final concentration of 35%, and the mixture was stirred for 45 minutes and then subjected to 10 minutes of high speed centrifugation at 17,000 g. The thus obtained precipitate was mixed with 100 ml of a buffer B (100 mM Tris/HCl (pH 7.5), 0.5 M NaCl, 1 mM EDTA-2Na, 0.1 mM DTT, 10% glycerol, 10 mg/l aprotinin, 10 mg/l leupeptin and 10 mg/l antitrypsin) and subjected to 20 minutes of ultracentrifugation at 40,000, and the resulting supernatant was dialyzed overnight against 150 volumes of a buffer C (100 mM Tris/HCl (pH 7.5), 0.5 M NaCl, 1 mM EDTA-2Na, 0.1 mM DTT and 10% glycerol) and then filtered through a 5 μm filter. The filtrate was applied to a biotin affinity column, washed with the buffer B and then eluted with the buffer B supplemented with 5 mM biotin.
2. Measurement of ACC Inhibition Activity
Each of the compounds produced in the Examples was dissolved in DMSO, and the solution was put into a glass vial, mixed with 250 μl of an ACC-containing reagent 1 (40 mM Tris/HCl (pH 7.5), 40 mM MgCl2, 40 mM sodium citrate, 2 mM DTT and 100 μg/ml fatty acid-free BSA),incubated at 37° C. for 30 minutes in a thermostatic chamber, cooled with ice, mixed with 250 μl of a reagent 2 (40 mM Tris/HCl (pH 7.5), 2 mM DTT, 8 mM ATP and 0.5 mM acetyl-CoA) containing 74 kBq of NaH^14CO3, again incubated at 37° C. for 10 minutes in a thermostatic chamber and then mixed with 0.1 ml of 1 N HCl to terminate the reaction. After complete removal of moisture in the glass vial under a reduced pressure, an emulsified scintillator (Cleasol I) was added to the glass vial, and the ^14C radioactivity was measured using a liquid scintillation counter. […]
Inhibition activity ratio (%)=(1−radioactivity when a drug to be tested is added/radioactivity when the drug to be rested is not added)×100

Compound | melting point [°C] | inhibition at 5.6 µM [1] [%] | inhibition at 30 µM (HepG2 cells) [%]
CCCCNC(=O)NS(=O)(=O)c1ccccc1NC(=O)c1cccc(OCc2ccccc2)c1 | 177 to 178 |  | 
O=C(Nc1ccccc1S(=O)(=O)NC(=O)c1cccc(OCc2ccccc2)c1)c1cccc(OCc2ccccc2)c1 [Example 1, N-[2-(3-Benzyloxybenzamido)benzenesulfonyl]-3-benzyloxybenzamide] | 172 to 173 |  | 
O=C(Nc1ccccc1S(=O)(=O)NC(=O)c1ccccc1)c1cccc(OCc2ccccc2)c1 [Example 2, N-[2-(3-Benzyloxybenzamido)benzenesulfonyl]benzamide] | 201 to 202 | 60.7 | 43.8
CC(=O)NS(=O)(=O)c1ccccc1NC(=O)c1cccc(OCc2ccccc2)c1 [Example 3, N-[2-(3-Benzyloxybenzamido)benzenesulfonyl]acetamide] | 195 to 196 |  | 
COc1ccc(C(=O)NS(=O)(=O)c2ccccc2NC(=O)c2cccc(OCc3ccccc3)c2)cc1 [Example 6, N-[2-(3-Benzyloxybenzamido)benzenesulfonyl]-4-methoxybenzamide] | 189 to 190 |  | 
CCCCCC(=O)NS(=O)(=O)c1ccccc1NC(=O)c1cccc(OCc2ccccc2)c1 [Example 8, N-[2-(3-Benzyloxybenzamido)benzenesulfonyl]-n-hexanamide] | 133 to 134 |  | 
O=C(Nc1ccccc1S(=O)(=O)NC(=O)c1ccc(F)cc1F)c1cccc(OCc2ccccc2)c1 [Example 11, N-[2-(3-Benzyloxybenzamido)benzenesulfonyl]-2,4-difluorobenzamide] | 208 to 209 |  | 
CC(C)(C)c1ccc(COc2cccc(C(=O)Nc3ccccc3S(=O)(=O)NC(=O)/C=C/c3ccccc3)c2)cc1 [Example 13, N-[2-[3-(4-t-Butylbenzyloxy)benzamido]benzenesulfonyl]cinnamamide] | 110 to 111 | 79.5 | 38.1
CCCCCCCCCC(=O)NS(=O)(=O)c1ccccc1NC(=O)c1ccc([N+](=O)[O-])c(OCc2ccccc2)c1 [Example 16, N-[2-(3-Benzyloxy-4-nitrobenzamido)benzenesulfonyl]decanamide] | 129 to 130 | 79.9 | 94.3
CCCCCC(=O)NS(=O)(=O)c1ccccc1NC(=O)c1cccc(OCc2ccc(Cl)cc2)c1 [Example 18, N-[2-[3-(4-Chlorobenzyloxy)benzamido]benzenesulfonyl]hexanamide] | 148 to 149 |  | 
CCCCCC(=O)NS(=O)(=O)c1ccccc1NC(=O)c1cccc(OCc2ccc(OC)cc2)c1 [Example 24, N-[2-[3-(4-Methoxybenzyloxy)benzamido]benzenesulfonyl]hexanamide] | 154 to 157 |  | 
CCCCCC(=O)NS(=O)(=O)c1ccccc1NC(=O)c1cccc(OCC2CCCCC2)c1 [Example 27, N-[2-(3-Cyclohexylmethoxybenzamido)benzenesulfonyl]hexanamide] | 112 to 113 |  | 
CC(=O)NS(=O)(=O)c1ccccc1NC(=O)c1cccc(OCc2ccc(C(C)(C)C)cc2)c1 [Example 29, N-[2-[3-(4-t-Butylbenzyloxy)benzamido]benzenesulfonyl]acetamide] | 190 to 191 |  | 
CCCCCCCOc1cccc(C(=O)Nc2ccccc2S(=O)(=O)NC(C)=O)c1 [Example 35, N-[2-(3-Heptyloxybenzamido)benzenesulfonyl]acetamide] | 194 to 195 |  | 
CCCCCCCOc1cccc(C(=O)Nc2ccccc2S(=O)(=O)NC(=O)CCCCC)c1 [Example 36, N-[2-(3-Heptyloxybenzamido)benzenesulfonyl]hexanamide] | 200 to 201 |  | 
CC(C)(C)C(=O)NS(=O)(=O)c1ccccc1NC(=O)c1ccc(C#Cc2ccccc2)cc1 [Example 41, N-[2-(4-Phenylethynylbenzamido)benzenesulfonyl]pivalamide] | 236 to 237 |  | 
CC(C)=CC(=O)NS(=O)(=O)c1ccccc1NC(=O)c1ccc(C#Cc2ccccc2)cc1 [Example 42, 3-Methyl-N-[2-(4-phenylethynylbenzamido)benzenesulfonyl]-2-butenamide] | 187 to 188 |  | 

More lines, main results first:

melting point [°C] | inhibition at 5.6 µM [1] [%] | Compound | inhibition at 30 µM (HepG2 cells) [%]
163 to 164 |  | O=C(NS(=O)(=O)c1ccccc1NC(=O)c1cccc(OCc2ccccc2)c1)Oc1ccccc1 | 
124 to 125 |  | CCCCCCCCNC(=O)NS(=O)(=O)c1ccccc1NC(=O)c1cccc(OCc2ccccc2)c1 | 
220 to 221 |  | O=C(Nc1ccccc1S(=O)(=O)NC(=O)c1ccc(C(F)(F)F)cc1)c1cccc(OCc2ccccc2)c1 [Example 4, N-[2-(3-Benzyloxybenzamido)benzenesulfonyl]-4-trifluoromethylbenzamide] | 
233 to 234 |  | O=C(Nc1ccccc1S(=O)(=O)NC(=O)c1ccc([N+](=O)[O-])cc1)c1cccc(OCc2ccccc2)c1 [Example 5, N-[2-(3-Benzyloxybenzamido)benzenesulfonyl]-4-nitrobenzamide] | 
85 to 86 | 65 | CCCCCCCCCC(=O)NS(=O)(=O)c1ccccc1NC(=O)c1cccc(OCc2ccccc2)c1 [Example 9, N-[2-(3-Benzyloxybenzamido)benzenesulfonyl]decanamide] | 86.8
193 to 194 |  | CC(C)(C)C(=O)NS(=O)(=O)c1ccccc1NC(=O)c1cccc(OCc2ccc(C(C)(C)C)cc2)c1 [Example 12, N-[2-[3-(4-t-Butylbenzyloxy)benzamido]benzenesulfonyl]pivalamide] | 
 | 84.8 | CCCCC/C=C\C/C=C\CCCCCCCC(=O)NS(=O)(=O)c1ccccc1NC(=O)c1cccc(OCc2ccccc2)c1 [Example 15, N-[2-(3-Benzyloxybenzamido)benzenesulfonyl]linolamide] | 30.6
159 to 161 | 83.3 | CCCCCCCCCC(=O)NS(=O)(=O)c1ccccc1NC(=O)c1cccc(OCc2ccc(Cl)cc2)c1 [Example 19, N-[2-[3-(4-Chlorobenzyloxy)benzamido]benzenesulfonyl]decanamide] | 90.5
138 to 141 |  | CCCCCC(=O)NS(=O)(=O)c1ccccc1NC(=O)c1cccc(OCc2ccc([N+](=O)[O-])cc2)c1 [Example 21, N-[2-[3-(4-Nitrobenzyloxy)benzamido]benzenesulfonyl]hexanamide] | 
114 to 117 |  | COc1ccc(COc2cccc(C(=O)Nc3ccccc3S(=O)(=O)NC(C)=O)c2)cc1 [Example 23, N-[2-[3-(4-methoxybenzyloxy)benzamido]benzenesulfonyl]acetamide] | 
164 to 165 |  | CC(=O)NS(=O)(=O)c1ccccc1NC(=O)c1cccc(OCc2ccc(C(F)(F)F)cc2)c1 [Example 32, N-[2-[3-(4-Trifluoromethylbenzyloxy)benzamido]benzenesulfonyl]acetamide] | 
214 to 215 |  | CC(=O)NS(=O)(=O)c1ccccc1NC(=O)c1ccc(C#Cc2ccccc2)cc1 [Example 38, N-[2-(4-Phenylethynylbenzamido)benzenesulfonyl]acetamide] | 
